Experimental data: patent US10953027B2, “Active agents and methods of their use for the treatment of metabolic disorders and nonalcoholic fatty liver disease” (Flagship Pioneering Innovations V, Inc., priority 2018, dated 2021)

How the values were obtained:
[1] = tested on: Mouse myocyte; assay: Mouse myocyte lipolysis assay; assay type: cell-based; settings: Mus musculus, read-out: Free glycerol % DMSO
Method: Cells were obtained from ATCC and cultured in Dulbecco's Modified Eagle's medium (DMEM) containing 20% fetal bovine serum and 1% penicillin/streptomycin at 37° C. in an incubator with 5% CO2. Once the cells became confluent, they were seeded into a tissue culture treated 96 well plate. The next day, the medium containing DMEM with 2% equine serum was used to start differentiation. Once cells were fully differentiated, they were treated with indicated compounds.

[2] = tested on: Primary human subcutaneous adipocytes; assay: Glucose uptake in human subcutaneous adipocytes, insulin sensitive model; assay type: cell-based
Method: Primary human subcutaneous adipocytes (Zen Bio, Research Triangle Park, N.C.) were differentiated for two weeks prior to treatment. Cells were treated with indicated compounds diluted in (dimethyl-sulfoxide) DMSO in serum free medium for 24 hours in triplicate. After 24 hours, media was exchanged for assay buffer and the compounds were added again but in the presence of approximately 1 nM insulin. Glucose uptake was initiated with the addition of a cocktail containing 2-deoxyglucose and ^3H-2-deoxyglucose and allowed to incubate for 2 hours. Cells were washed, lysed and glucose uptake was measured as counts per well. As an assay control, 100 nM of insulin was used during the 2 hours of glucose uptake. […] Statistical changes in glucose uptake were determined by way ANOVA and compared to DMSO.

[3] = tested on: Caco-2 colonocytes; assay: Human Caco-2 barrier integrity assay (TEER); assay type: cell-based; settings: 48 hours
Method: Caco-2 colonocytes were maintained at 37° C. and 5% CO2 in Dulbecco's Modified Eagle Medium (DMEM) and supplemented with 10% FBS, 1% NEAA, 1% penicillin-streptomycin. At 70-80% confluency, cells were trypsinized and seeded in 0.4 cm^2 transwell collagen I coated membranes with supplemented DMEM in both apical and basolateral compartments. Cells were seeded at a density of 200,000 cells per well and maintained for 10 days to form a polarized barrier with a TransEpithelial Electrial Resistance (TEER) reading above 1000Ω. On the first day of the assay, initial TEER readings were taken and cytokines were added to the basolateral media (50 ng/mL TNFα, 25 ng/mL IFNγ and 10 ng/mL IL-1β) to reduce barrier integrity while compounds diluted in (dimethylsulfoxide) DMSO were added to the apical media in triplicate. After 48 hours, TEER readings were taken again and viability was measured by CellTiter 96® AQueous One Solution Cell Proliferation Assay (Promega). The percent change in TEER over the 48 hours was determined and normalized to the 0.1% DMSO control (Table 6).

[4] = tested on: Mouse 3T3-L1 cells; assay: Mouse adipocyte lipolysis assay; assay type: cell-based; settings: Mus musculus, 3T3-L1, 24 hours, read-out: Lipolysis Free Fatty Acids % DMSO
Method: Once the cells became confluent, they were seeded into a tissue culture treated 96 well plate. […] After 14 days of differentiation, cells were treated with compounds of interest. After 24 hours post-treatment, the cell viability was assessed using CellTiter-Glo Luminescent Cell Viability Assay from Promega, and lipolysis was determined using Lipolysis Assay Kit from ZenBio.

[5] = tested on: naïve CD4+ T cells; assay: Human regulatory T cell differentiation assay; assay type: cell-based; settings: 6 days
Method: Peripheral blood mononuclear cells (PBMCs) from whole blood donated by health volunteers were separated by Ficoll-Paque gradient centrifugation and naïve CD4^+ T cells were subsequently isolated using magnet beads (EasySep™ Human Naïve CD4^+ T Cell Isolation Kit, Cambridge, Mass.). For regulatory T cell (Treg) differentiation assay, naïve CD4^+ T cells were cultured (1-10×10^4 cells) in CTS OpTmizer medium for 6 days and stimulated with 5 ng/ml TGF-β, 100 U/ml IL-2, and ImmunoCult™ Human […] T Cell Activator; Stemcell #10990) with/without our Compounds. Cell viability was determined using a viability dye (eBioscience Fixable Viability Dye eFluor 780: ThermoFisher 65-0865-14) at 1:500 dilution. The cells were gated for Treg, defined as Live, CD11c^−, CD14^−, CD19^−, CD8^−, CD4^+, CD3^+, CD25^+, FOXP3^+. Percent (%) Tregs were calculated as percentage of CD4^+, CD25^+, FOXP3^+ cells over total CD4^+ T cells. Statistical analysis was performed with GraphPad Prism Software Using One-Way ANOVA.

[6] = tested on: Human Peripheral Blood Monocytes (PBMCs); assay: Cytokine release from human PBMCs; assay type: cell-based; settings: 100 μM, LPS, 24 hours
Method: Human donor blood (8 mL) was collected in sodium citrate CPT tubes and centrifuged at 1,600×g for 20 minutes at room temperature. […] PBMCs samples were centrifuged at 400×g for 10 minutes at 10° C. […] PBMCs were filtered through a 70 micron mesh to remove any cellular debris. […] PBMCs in a 96-well plate were rested for 30 minutes in a 37° C., 5% CO2 incubator, then subsequently treated with 10 μl of indicated compound. After 2 hours 10 μL of LPS (O111:B4) 1 mg/mL was added to test wells. After 24 hours of incubation at 37° C., 5% CO2, 100 μL of cell supernatant was collected and transferred to a 96-well plate (non-tissue treated, flat bottom). The plate was centrifuged at 350×g for 5 minutes at room temperature, and then the clear supernatant transferred to a new 96-well plate (non-tissue treated, flat bottom). The remaining cells were tested for viability using CellTiter-Glo® Luminescent Cell Viability Assay (Promega). The supernatant was analyzed for TNFα, IL-6 and IL-1β (kit LXSAHM-03; R&D Systems), using Luminex Immunoassay Technology (MAGPIX System). Cytokine levels of LPS treated DMSO control samples were set to 100%, and compound treated samples were expressed relative to this (Table 13).

[7] = tested on: Primary human subcutaneous adipocytes; assay: Glucose uptake in human subcutaneous adipocytes, insulin resistant model; assay type: cell-based
Method: As described above, primary human subcutaneous adipocytes were differentiated for two weeks prior to treatment. To induce an insulin resistant state, cells were treated in serum free Dulbecco's Modified Eagle Medium (high glucose) and […] for 24 hours. Cells were simultaneously treated with compounds diluted in DMSO for 24 hours. As described above, after 24 hours, media was exchanged for assay buffer and the compounds were added again but in the presence of approximately 1 nM insulin. Cells were washed and lysed after 2 hours and glucose uptake was measured. […] Statistical changes in glucose uptake were determined by way ANOVA and compared to DMSO.

[8] = tested on: AhR; assay: AhR activation in Caco-2 cells through CYP1A1 mRNA expression
Method: Caco-2 cells from American Type Culture Collection (ATCC) were plated in a sterile tissue culture treated 96-well plate (ThermoFisher) at […] per well, and grown overnight at 37° C., 5% CO2 in DMEM complete (Gibco) in order to achieve confluence. After the incubation medium was aspirated from the Caco-2 monolayers, tissues were then washed with 200 μL of warmed PBS solution, and subsequently 190 μL of pre-warmed growth medium was added to each well. Compounds of interest were diluted at a 20× concentration in growth medium containing 2% DMSO, and 10 μL of compound solutions were added to respective wells in triplicate. Compounds where incubated overnight at 37° C., 5% CO2. 2-(1′H-indole-3′-carbonyl)-thiazole-4-carboxylic acid methyl ester (ITE) was used as the positive control for AhR activation at 1 and 100 μM concentrations. At the end of the incubation, medium was aspirated off of the Caco-2 cells, and washed with 100 μL of cold PBS solution. RNA was extracted via the TaqMan™ Gene Expression Cells-to-CT™ Kit (ThermoFisher) according to the manufacturers protocol. The QuantStudio 6 Flex (Applied Biosciences) was used to analyze mRNA levels of CYP1A1 using GAPDH as the endogenous control. TaqMan™ probe sets for both genes were acquired from ThermoFisher. Samples were run in triplicate and data was analyzed using the QuantStudio software and reported as linear (Table 1) and log 2(ΔΔCT) values. Statistical analysis was performed using a two-tailed t-test comparing CYP1A1 levels in the presence of each individual compound to the vehicle negative control.

[9] = Homo sapiens, CD4+ T, 144 h, 1 uM, read-out: Treg induction % DMSO

## CC(=O)O [Acetate, acetic acid]
[1]; 1 mM
  activity at 1000 µM: 90 to 100%
[1]; 3 mM
  activity at 3000 µM: 90 to 100%
[2]; 1 mM
  Insulin Sensitive % DMSO (glucose uptake): = (50%> ≤110%: =)
[2]; 3 mM
  Insulin Sensitive % DMSO (glucose uptake): = (50%> ≤110%: =)
[3]; 1 mM + cytokines
  % Change in TEER from DMSO: − (≤125%: −)
[3]; 3 mM + cytokines
  % Change in TEER from DMSO: − (≤125%: −)
[4]; 1 mM
  activity at 1000 µM: 50 to 70%
[4]; 3 mM
  activity at 3000 µM: 50 to 70%
[5]; 1 mM
  Cell viability % DMSO: = (90%≥ ≤110%: =)
[5]; 3 mM
  Cell viability % DMSO: = (90%≥ ≤110%: =)
[5]; Homo sapiens, CD4+ T, 144 h, 1 mM, read-out: Treg induction % DMSO
  activity at 1000 µM: 110 to 130%
[5]; Homo sapiens, CD4+ T, 144 h, 3 mM, read-out: Treg induction % DMSO
  activity at 3000 µM: > 130%
[6]
  IL6 % DMSO control: = ((=) 90%≥ <110% DMSO)
  ILβ % DMSO control: = ((=) 90%≥ <110% DMSO)
  TNFα % of DMSO control: = ((=) 90%≥ <110% DMSO)
[7]; 1 mM
  Insulin Resistant % DMSO (glucose uptake): = (50%> ≤110%: =)
[7]; 3 mM
  Insulin Resistant % DMSO (glucose uptake): = (50%> ≤110%: =)

## Oc1ccc(C=Cc2cc(O)cc(O)c2)cc1 [Resveratrol, resveratrol]
[1]
  activity at 1 µM: 70 to 90%
[1]; 10 μM
  activity at 10 µM: 50 to 70%
[2]; 10 μM
  Insulin Sensitive % DMSO (glucose uptake): = (50%> ≤110%: =)
[2]; 100 μM
  Insulin Sensitive % DMSO (glucose uptake): − (<50%: −)
[3]; 10 μM + cytokines
  % Change in TEER from DMSO: − (≤125%: −)
[3]; 100 μM + cytokines
  % Change in TEER from DMSO: +++ (200%>: +++)
[4]
  activity at 1 µM: 70 to 90%
[4]; 10 μM
  activity at 10 µM: 90 to 100%
[5]; 1 uM
  Cell viability % DMSO: − (<90%: −)
[5]; 10 uM
  Cell viability % DMSO: − (<90%: −)
[5]; [9]
  activity at 1 µM: 110 to 130%
[5]; Homo sapiens, CD4+ T, 144 h, 10 uM, read-out: Treg induction % DMSO
  activity at 10 µM: 110 to 130%
[6]
  IL6 % DMSO control: + ((+) 50%≥ <90% DMSO)
  ILβ % DMSO control: = ((=) 90%≥ <110% DMSO)
  TNFα % of DMSO control: + ((+) 50%≥ <90% DMSO)
[7]; 10 μM
  Insulin Resistant % DMSO (glucose uptake): = (50%> ≤110%: =)
[7]; 100 μM
  Insulin Resistant % DMSO (glucose uptake): − (<50%: −)

## O=c1c(O)c(-c2ccc(O)c(O)c2)oc2cc(O)cc(O)c12 [Quercetin, quercetin]
[1]; 100 nM
  activity at 0.1 µM: 70 to 90%
[1]
  activity at 1 µM: 70 to 90%
[2]; 100 nM
  Insulin Sensitive % DMSO (glucose uptake): = (50%> ≤110%: =)
[2]; 1 μM
  Insulin Sensitive % DMSO (glucose uptake): = (50%> ≤110%: =)
[3]; 1 μM + cytokines
  % Change in TEER from DMSO: + (125%> ≤150%: +)
[3]; 100 μM + cytokines
  % Change in TEER from DMSO: − (≤125%: −)
[4]; 100 nM
  activity at 0.1 µM: 50 to 70%
[4]
  activity at 1 µM: 50 to 70%
[5]; 100 nM
  Cell viability % DMSO: = (90%≥ ≤110%: =)
[5]; 1 uM
  Cell viability % DMSO: = (90%≥ ≤110%: =)
[5]; Homo sapiens, CD4+ T, 144 h, 100 nM, read-out: Treg induction % DMSO
  activity at 0.1 µM: 90 to 110%
[5]; [9]
  activity at 1 µM: 90 to 110%
[6]
  IL6 % DMSO control: + ((+) 50%≥ <90% DMSO)
  ILβ % DMSO control: + ((+) 50%≥ <90% DMSO)
  TNFα % of DMSO control: + ((+) 50%≥ <90% DMSO)
[7]; 100 nM
  Insulin Resistant % DMSO (glucose uptake): = (50%> ≤110%: =)
[7]; 1 μM
  Insulin Resistant % DMSO (glucose uptake): = (50%> ≤110%: =)

## O=C(O)c1ccccc1 [Benzoic acid]
[8]; Conc. 10.0 μM
  Average CYP1A1 mRNA levels: + (+ = >2-fold Vehicle)
[8]; Conc. 100.0 μM
  Average CYP1A1 mRNA levels: + (+ = >2-fold Vehicle)

## CCC(=O)O [Propionate, propionate]
[2]; 3 mM
  Insulin Sensitive % DMSO (glucose uptake): = (50%> ≤110%: =)
[3]; 1 mM + cytokines
  % Change in TEER from DMSO: + (125%> ≤150%: +)
[3]; 3 mM + cytokines
  % Change in TEER from DMSO: ++ (150%≥ ≤200%: ++)
[6]
  IL6 % DMSO control: + ((+) 50%≥ <90% DMSO)
  ILβ % DMSO control: + ((+) 50%≥ <90% DMSO)
  TNFα % of DMSO control: + ((+) 50%≥ <90% DMSO)
[7]; 3 mM
  Insulin Resistant % DMSO (glucose uptake): = (50%> ≤110%: =)

## CC(O)CC(=O)O (stereo not drawn) [BHB, β-hydroxybutyrate]
[3]; 200 μM + cytokines
  % Change in TEER from DMSO: + (125%> ≤150%: +)
[3]; 2 mM + cytokines
  % Change in TEER from DMSO: − (≤125%: −)
[6]
  IL6 % DMSO control: = ((=) 90%≥ <110% DMSO)
  ILβ % DMSO control: − ((−) ≥110% DMSO;)
  TNFα % of DMSO control: − ((−) ≥110% DMSO;)

## CCCC(=O)O [Butyrate, butyrate]
[2]; 3 mM
  Insulin Sensitive % DMSO (glucose uptake): − (<50%: −)
[3]; 1 mM + cytokines
  % Change in TEER from DMSO: − (≤125%: −)
[3]; 3 mM + cytokines
  % Change in TEER from DMSO: − (≤125%: −)
[3]; 5 mM + cytokines
  % Change in TEER from DMSO: ++ (150%≥ ≤200%: ++)
[6]
  IL6 % DMSO control: + ((+) 50%≥ <90% DMSO)
  ILβ % DMSO control: − ((−) ≥110% DMSO;)
  TNFα % of DMSO control: ++ ((++) <50% DMSO)
[7]; 3 mM
  Insulin Resistant % DMSO (glucose uptake): + (110%> ≤140%: +)
